Data on one compound can be found in patent publication US11891667B2, “IGF2BP3 functional alterations and overexpression as a marker for cancer diagnosis and therapeutic response to IGF1R inhibitors” (UNIVERSITY OF PITTSBURGH-OF THE COMMONWEALTH SYSTEM OF …, priority 2016, dated 2024).

Assay [1] relates to U2OS cells with induced IGF2BP3 expression. Description: Cell growth of U2OS cells transiently transfected with IGF2BP3. Type of assay: cell-based. As to conditions: IGF2BP3 induced by transient transfection, FIG. 5C. As for the experimental part: (§1) The effects of IGF1R inhibition on the growth of cancer cells driven by IGF2PB3 overexpression were then tested. First, studies were conducted to determine if activation of the AKT and MAPK pathways and cell growth induced by IGF2BP3 overexpression is affected by inhibiting IGF1R by OSI-906 in vitro. […] The experiments were repeated in quadruplicate and were calculated as percentage of viable cells after treatment with OSI-906 (mean±SD). […] Again, the assay was performed in quadruplicate and shown as mean±SD.

The subject of the next assay is FTC133 cells. Description: Cell growth/proliferation of FTC133 cells (low IGF2BP3). Type of assay: cell-based, human. As for the experimental part: as §1
For assay [2], the system named is PaCa-2 pancreatic cancer cell tumors. Description: PaCa-2 xenograft in nude mice. Type of assay: in vivo. As to conditions: FIG. 5F; for tumor growth: PaCa-2 subcutaneous xenograft, nude mice, therapeutic doses. As for the experimental part: (§2) Next, tumor cells overexpressing IGF2BP3 were tested to see if their growth can be blocked via IGF1R inhibition in vivo using a xenograft experimental model. Pancreatic cancer cells PaCa-2 and colon cancer cells Caco-2, both expressing IGF2PB3 at high level (FIG. 5B), and thyroid cancer cells FTC133 with low levels of IGF2BP3 expression were employed to establish tumors growing in nude mice at sites of subcutaneous cell injection.

A further assay deals with PaCa-2 cells. Description: Soft agar colony formation of PaCa-2 cells. Type of assay: cell-based, human. As for the experimental part:
Finally, the impact of IGF2BP3 overexpression on cell transformation was investigated.
as §1

The subject of a further assay is PaCa-2 cancer cells. Description: Cell growth/proliferation of PaCa-2 cancer cells (high IGF2BP3). It counts as cell-based, human. As for the experimental part: as §1
In assay [3] the test system is FTC133 thyroid cancer cell tumors. The experiment in a line: FTC133 xenograft in nude mice. It counts as in vivo. As to conditions: FIG. 5G; for tumor growth: FTC133 subcutaneous xenograft, nude mice, therapeutic doses. As for the experimental part: as §2
For assay [4], the system named is Caco-2 colon cancer cell tumors. The experiment in a line: Caco-2 xenograft in nude mice. Type of assay: in vivo. The conditions noted are these: FIG. 5F; for tumor growth: Caco-2 subcutaneous xenograft, nude mice, therapeutic doses. As for the experimental part: as §2
The test system of the next assay is IGF1R. The experiment in a line: Western blotting of IGF1R phosphorylation and downstream signaling in HEK293 cells overexpressing IGF2BP3. Type of assay: cell-based. The conditions noted are these: FIG. 5A. How it is done:
as §1
A general note: In western blotting, separated proteins are transferred to a membrane and probed.

The subject of a further assay is solid tumors. The conditions noted are these: cited from earlier work.
For another assay, the system named is U2OS cells. The experiment in a line: Cell growth/proliferation of U2OS cells (low IGF2BP3). It counts as cell-based. As for the experimental part: as §1
Assay [5] relates to FTC133 cells with induced IGF2BP3 expression. Description: Cell growth of FTC133 cells transiently transfected with IGF2BP3. Type of assay: cell-based, human. The conditions noted are these: FTC133, IGF2BP3 induced by transient transfection, FIG. 5C. As for the experimental part:
as §1

For the compound `C[C@]1(O)C[C@@H](c2nc(-c3ccc4ccc(-c5ccccc5)nc4c3)c3c(N)nccn32)C1` [OSI-906, linsitinib], the cell growth entry in [1] is reported as “acquired sensitivity to growth inhibition”; in the assay with FTC133 cells (FTC133, low IGF2BP3 expression, FIG. 5B), “did not have any effects”; with PaCa-2 cancer cells (PaCa-2, strongly overexpress IGF2BP3, FIG. 5B) it was “dose-dependent growth inhibition”; in the assay with U2OS cells (low IGF2BP3 expression, FIG. 5B) it was “did not have any effects”; in assay [5], “acquired sensitivity to growth inhibition”. In addition, the “proliferation (percentage of viable cells)” value with FTC133 cells (FTC133, treatment for 72 hours, FIG. 5B bottom panel) is on record as “no effect on proliferation”; in the assay on PaCa-2 cancer cells (PaCa-2, treatment for 72 hours, FIG. 5B bottom panel), “inhibition of proliferation”; in the assay on U2OS cells (treatment for 72 hours, FIG. 5B bottom panel), “no effect on proliferation”. The tumor growth entry in assay [2] was “arrested growth of tumors”; in [2] (listed as linsitinib) it was “particularly inhibited”; in assay [3] it was “had no effect on the growth”; in assay [3] (listed as linsitinib), “not impacted”; in assay [4] it was “arrested growth of tumors”; in assay [4] (listed as linsitinib), “particularly inhibited”. Further, the “phosphorylated IGF1R, AKT, S6, and ERK in the tumor tissue” value was “reduction of phosphorylated IGF1R, AKT, S6, and ERK” in [2] (PaCa-2 xenograft tumor tissue); “did not show reduction in the phosphorylation” in [3] (FTC133 xenograft tumor tissue); “reduction of phosphorylated IGF1R, AKT, S6, and ERK” in assay [4] (Caco-2 xenograft tumor tissue). Also, the “colony formation in soft agar” value with PaCa-2 cells is on record as “significant reduction of colony formation”. The “IGF1R phosphorylation and downstream signaling induced by IGF2BP3” value in the assay on IGF1R (5 μM, 30 minutes) is “inhibition of IGF1R phosphorylation and downstream signaling”. Also, the “phosphorylation of AKT, S6, and ERK induced by IGF2BP3 overexpression” value in the assay on IGF1R (Western blotting) is “blocked phosphorylation of AKT, S6, and ERK”. Besides, the “proportion of patients with clinical response” value in the assay with solid tumors (clinical trials, patients with solid tumors) is on record as 1-5%. Also, the “efficacy in patients in clinical trials” value in the assay with solid tumors (clinical trials) is “ineffective in the vast majority of patients”. Also, the “tumor responsiveness in clinical trials” value in the assay with solid tumors (colorectal cancer, non-small cell lung cancer, sarcoma, and other cancer types) is “only low levels of tumor responsiveness were observed”.
